# Laboratory results published in article PMC8911550, “The Effects of Side-Chain Configurations of a Retro–Inverso-Type Inhibitor on the Human T-Cell Leukemia Virus (HTLV)-1 Protease” (Molecules, 2022).
# Numbered stars: 1 amine (or outer) side, 2 acyl side, 3 side chain; on linkers, the order of the positions; unused ones are H or OH. Square brackets hold non-standard residues; d marks the D form. Ends that are not written are not given here. Peptide text beside a SMILES is read from it. X1 = CC(C)C[C@H](C(=O)[*:2])[C@H](O)C[C@H]1CCCN1[*:1]; d(aIle) = CC[C@H](C)[C@@H](N)C(=O)O; aIle = CC[C@@H](C)[C@H](N)C(=O)O
# Key:
# [1] = system: recombinant HTLV-1 protease; assay: Cleavage of allo-Ile-containing substrates by recombinant HTLV-1 protease, analytical HPLC; format: biochemical, human T-cell leukemia virus type 1 (HTLV-1); conditions: decrease in substrate by analytical HPLC, Figure 3
# Protocol: Each synthesized substrate (4–6) was then treated with the recombinant HTLV-1 protease, and the decrease in each substrate level was monitored using analytical HPLC [15].
# Figure 3 Cleavage reaction of the substrates containing allo-Ile residues by the HTLV-1 protease: blue, original substrate; orange, substrate 4; gray, substrate 5; yellow, substrate 6.
# [2] = target: T1, recombinant HTLV-1 protease (1-116, L40I) (Human T-cell leukemia virus 1, UniProt P10274, L489I); assay: biochemical; format: biochemical, human T-cell leukemia virus type 1 (HTLV-1); conditions: for inhibitory activity relative to RI-inhibitor 3: effect of D-allo-Ile replacement, RI-inhibitor 3 as reference, recombinant protease
# T1 construct: examined using the recombinant HTLV-1 protease (1-116, L40I) and a substrate dodecapeptide; made in house; host or cells: E. coli BL21(DE3)
# Protocol: The reaction mixture was directly analyzed by analytical HPLC with a C18 reversed-phase column. Each IC50 value of the RI-type inhibitor was obtained from the sigmoidal dose–response curve (Figure S6) calculated from the decrease in substrate concentration.
# The reaction mixture was analyzed on a Cosmosil 5C18-ARII column (4.6 × 150 mm), employing a linear gradient of CH3CN (10–40%, 30 min) in aqueous 0.1% TFA. Each IC50 value was obtained from a sigmoidal dose–response curve obtained from the decrease in the substrate in the reaction mixture (Figure S3). Each experiment was repeated three times.
# [3] = system: HTLV-1 protease; conditions: ref [20]; cited from earlier work
# T1 sequence (P10274 450-565 L489I): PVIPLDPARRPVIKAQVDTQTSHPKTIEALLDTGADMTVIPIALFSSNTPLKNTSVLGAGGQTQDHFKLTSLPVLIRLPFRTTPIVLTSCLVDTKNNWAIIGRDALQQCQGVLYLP
Molecule,"cleavage rate compared with original substrate, in words [1]",IC50 [2] [µM],inhibitory activity relative to RI-inhibitor 3 [2],further results
substrate 5: substrate 5 containing an allo-Ile residue at the non-prime site (6-allo-Ile) (KGPPV[aIle]LPIQAP-NH2; N-terminus assumed; SMILES CC[C@@H](C)[C@H](NC(=O)[C@@H](NC(=O)[C@@H]1CCCN1C(=O)[C@@H]1CCCN1C(=O)CNC(=O)[C@@H](N)CCCCN)C(C)C)C(=O)N[C@@H](CC(C)C)C(=O)N1CCC[C@H]1C(=O)N[C@H](C(=O)N[C@@H](CCC(N)=O)C(=O)N[C@@H](C)C(=O)N1CCC[C@H]1C(N)=O)[C@@H](C)CC),clearly showed a lower cleavage rate than the original substrate,,,
substrate 4: substrate 4 containing an allo-Ile residue at the prime site (9-allo-Ile) (KGPPVILP[aIle]QAP-NH2; N-terminus assumed; SMILES CC[C@@H](C)[C@H](NC(=O)[C@@H]1CCCN1C(=O)[C@H](CC(C)C)NC(=O)[C@@H](NC(=O)[C@@H](NC(=O)[C@@H]1CCCN1C(=O)[C@@H]1CCCN1C(=O)CNC(=O)[C@@H](N)CCCCN)C(C)C)[C@@H](C)CC)C(=O)N[C@@H](CCC(N)=O)C(=O)N[C@@H](C)C(=O)N1CCC[C@H]1C(N)=O),cleaved at a slightly lower rate than the original substrate,,,
"substrate 6: substrate 6 containing two allo-Ile residues at both sites (6,9-allo-Ile) (KGPPV[aIle]LP[aIle]QAP-NH2; N-terminus assumed; SMILES CC[C@@H](C)[C@H](NC(=O)[C@@H](NC(=O)[C@@H]1CCCN1C(=O)[C@@H]1CCCN1C(=O)CNC(=O)[C@@H](N)CCCCN)C(C)C)C(=O)N[C@@H](CC(C)C)C(=O)N1CCC[C@H]1C(=O)N[C@H](C(=O)N[C@@H](CCC(N)=O)C(=O)N[C@@H](C)C(=O)N1CCC[C@H]1C(N)=O)[C@H](C)CC)",clearly showed a lower cleavage rate than the original substrate,,,
CC[C@H](C)[C@@H](NC(=O)[C@@H](CC(C)C)[C@H](O)C[C@H]1CCCN1C(=O)[C@H](NC(C)=O)[C@@H](C)CC)C(=O)N[C@@H](C(=O)N1CCC[C@@H]1C(=O)N1CCC[C@@H]1C(N)=O)C(C)C [RI-inhibitor 10] (Ac-[d(aIle)][X1][d(aIle)][dV][dP][dP]-NH2),,85,tripled the inhibitory activity,
C[C@@H](NC(=O)[C@H]1N(C(=O)[C@@H](O)[C@H](Cc2ccccc2)NC(=O)[C@@H](NC(=O)[C@@H](NC(=O)CN2CCOCC2)c2ccccc2)C(C)(C)C)CSC1(C)C)C(C)(C)C [KNI-10729],,,,inhibition at 50 nM [3]: 79%
CC[C@@H](C)[C@@H](NC(=O)[C@@H](CC(C)C)[C@H](O)C[C@H]1CCCN1C(=O)[C@H](NC(C)=O)[C@H](C)CC)C(=O)N[C@@H](C(=O)N1CCC[C@@H]1C(=O)N1CCC[C@@H]1C(N)=O)C(C)C [RI-inhibitor 3] (Ac-[dI][X1][dI][dV][dP][dP]-NH2),,240,,
CC[C@@H](C)[C@@H](NC(=O)[C@@H](CC(C)C)[C@H](O)C[C@H]1CCCN1C(=O)[C@H](NC(C)=O)[C@@H](C)CC)C(=O)N[C@@H](C(=O)N1CCC[C@@H]1C(=O)N1CCC[C@@H]1C(N)=O)C(C)C [RI-inhibitor 8] (Ac-[d(aIle)][X1][dI][dV][dP][dP]-NH2),,110,doubled the inhibitory activity,
CC[C@@H](C)[C@@H](NC(C)=O)C(=O)N1CCC[C@@H]1C[C@@H](O)[C@H](CC(C)C)C(=O)N[C@@H](C(=O)N[C@@H](C(=O)N1CCC[C@@H]1C(=O)N1CCC[C@@H]1C(N)=O)C(C)C)[C@@H](C)CC [RI-inhibitor 9] (Ac-[dI][X1][d(aIle)][dV][dP][dP]-NH2),,130,doubled the inhibitory activity,
